# Experimental data taken from US9790496B2, “Microrna compounds and methods for modulating MIR-21 activity” (Regulus Therapeutics, Inc., priority 2011, dated 2017).
# Several values for one entry are separate records, joined by “and”; a condition that tells them apart may be missing. Equal entries are not always repeated. Strand notation (5' to 3'): a small letter for the sugar, then the base; units joined by * are phosphorothioate-linked, units joined directly phosphodiester-linked; [ ] holds rarer units or linkages, { } end groups; capitals alone tell only the bases. e = 2'-O-(2-methoxyethyl) (MOE); f = 2'-fluoro
# Experiments:
# [1] = test system: ischemia reperfusion injury/nephrectomy (IR/Nx) model; assay: Ischemia reperfusion injury/nephrectomy (IR/Nx) model: urinary albumin to creatinine ratio; type: in vivo, mouse; details: for geometric mean of the urinary albumin to creatinine ratio: s.c. 20 mg/kg on days 2, 3, 4, 8, urine day 9, PBS control 127, nephrectomy-only 16
# Source text: An ischemia reperfusion injury/nephrectomy (IR/Nx) model is created in the mouse through temporary unilateral clamping of an artery in one kidney, which leads to tubule damage, inflammation, and fibrosis, followed by removal of the second kidney at a later timepoint. In this model, the acute kidney dysfunction phase is useful to test candidate agents for the treatment of acute kidney injury (i.e. up to about the first 5 days), and the later phases of kidney dysfunction are useful to model chronic fibrosis (i.e. after about the first 5 days).
# Anti-miR-21 compounds were tested in the IR/Nx model. 25109, a 6-base mismatch to miR-21, was used as a control compound ([…]; where nucleosides not followed by a subscript indicate β-deoxynucleosides; nucleosides followed by a subscript “E” indicate 2′-MOE nucleosides; nucleosides followed by a subscript “S” indicate S-cEt nucleosides; and all internucleoside linkages are phosphorothioate internucleoside linkages).
# Unilateral IR was induced for a period of 30 minutes. Treatment groups were as follows: sham IR procedure; IR with PBS administered subcutaneously; IR with mismatched control 25109 administered subcutaneously at a dose of 20 mg/kg; IR with anti-miR-21 compound 25070 administered subcutaneously at a dose of 20 mg/kg; and IR with anti-miR-21 compound 25923 administered subcutaneously at a dose of 20 mg/kg. PBS or anti-miR was administered on days 2, 3, 4, and 8 following IR. On day 8, the healthy kidney was removed by nephrectomy from each animal, and animals were sacrificed on day 9. Just prior to sacrifice, urine was collected by direct bladder puncture.
# Urinary albumin to creatinine ratio was measured in the urine from each mouse. […] The geometric mean of the albumin to creatinine ratio in each group of mice was 16 μgAlb/mgCr (nephrectomy-only control), 127 μgAlb/mgCr (IR/Nx, PBS control), 140 μgAlb/mgCr (IR/Nx, 25109 control), 40 μgAlb/mgCr (IR/Nx, 25070), and 31 μgAlb/mgCr (IR/Nx, 25923). Blood urea nitrogen and serum creatinine levels were similar across all IR/Nx mice, and were elevated relative to nephrectomy-only control mice (data not shown).
# miR-21 = miR-21 luciferase sensor assay in Hela cells; type: cell-based
# Method: The compounds were assessed for miR-21 inhibitory activity in a luciferase assay. A microRNA luciferase sensor construct was engineered using pGL3-MCS2 (Promega). The construct was introduced into Hela cells to test the ability of anti-miR compounds to inhibit activity of miR-21. In this assay, miR-21 present in the Hela cells binds to its cognate site(s) in the luciferase sensor construct, and suppresses luciferase expression. When the appropriate anti-miR is introduced into the cells, it binds to miR-21 and relieves suppression of luciferase expression. Thus, in this assay anti-miRs that are effective inhibitors of miR-21 expression will cause an increase in luciferase expression.
# Day 1: Hela cells (ATCC), stably transfected with a luciferase construct engineered to contain a sequence complementary of miR-21, were seeded in T-170 flasks (BD Falcon) at 3.5*10^6 cells/flask. Hela cells were grown in Dulbecco's Modified Eagle Medium with High Glucose (Invitrogen).
# Day 2: Each flask of Hela cells was transfected with 0.5 ug of a phRL sensor plasmid (Promega) expressing Renilla to be used in normalization. Hela cells were transfected using 20 ul Lipofectamine 2000/flask (Invitrogen). After 4 hours of transfection, cells were washed with PBS and trypsinized. Hela cells were plated at 40 k/well in 24 well plates (BD Falcon) and left overnight.
# Day 3: Hela cells were transfected with anti-miRs using Lipofectin (Invitrogen) at 2.5 ul Lipofectin/100 nM ASO/ml Opti-MEM I Reduced Serum Medium (Invitrogen) for 4 hours. After ASO transfection, Hela cells were refed with Dulbecco's Modified Eagle Medium with High Glucose (Invitrogen).
# Day 4: Hela cells are passively lysed and luciferase activity measured using the Dual-Luciferase Reporter Assay System (Promega).
# The luciferase assay was performed to test the ability of anti-miRs with the nucleoside patterns described herein to inhibit the activity of miR-21. Results were compared to a ‘mock’ treatment, in which cells received no anti-miR treatment. The experiment was repeated and results of two experimental replicates are shown in the following Table B, as the luciferase value normalized to beta-galactosidase activity.
# The luciferase assay was performed as described herein to test the ability of anti-miRs in Table F to inhibit the activity of miR-21. Results were compared to a ‘mock’ treatment, in which cells received no anti-miR treatment. The experiment was repeated and results of two experimental replicates are shown in the following Table D, as fold change in luciferase value relative to the mock treatment.
# [2] = test system: collagen 1A1 and collagen 3A1 expression in kidney, unilateral ureteral obstruction (UUO) model; assay: UUO model of kidney fibrosis: kidney collagen 1A1 and collagen 3A1 expression by real-time PCR; type: in vivo, mice; details: UUO
# Method: Unilateral ureteral obstruction (UUO) is a well-established experimental model of renal injury leading to interstitial fibrosis, and thus is used as an experimental model that is reflective of human kidney disease. UUO is induced by surgically ligating a single ureter. As fibrosis is characterized by an increase in collagen, the presence and extent of kidney fibrosis may be determined by measuring collagen content. Both collagen 1A1 (Col 1A1) and collagen 3A1 (Col 3A1) are measured to assess collagen content. Kidney fibrosis may be visualized by staining tissue samples with picro-sirius red to detect increases in collagen content. Kidney fibrosis may also be observed by measuring the amount of hydroxyproline, which is a major component of collagen, in a sample.
# The cEt-containing anti-miR-21 compounds found to be active in the luciferase assay were tested in the UUO model of kidney fibrosis. 25919 comprising 2′-MOE and 2′-fluoro modifications is known to inhibit miR-21 activity in vivo and was included as a positive control. Groups of 8 animals each were treated as follows: UUO only, UUO with PBS, or UUO with anti-miR-21 compound. Relative to the day of the UUO procedure, PBS or anti-miR-21 compound was administered at days −3, −1, and +5. Anti-miR-21 compounds were administered at a dose of 20 mg/kg. As the anti-miR compounds were administered prior to the UUO procedure, this dosing regimen is considered a prophylactic treatment. At day 11, animals were sacrificed and kidney was isolated for measurement of collagen expression. Collagen expression was measured by real-time PCR and normalized first to GAPDH and then to the sham control animals. […]
# [3] = test system: collagen 1A1 and collagen 3A1 expression in kidney, ischemia reperfusion injury (IRI) model; assay: Unilateral ischemia reperfusion injury (IRI) model: kidney collagen 1A1 and collagen 3A1 expression; type: in vivo, mouse; details: unilateral IRI
# Method: (§1) A model of ischemia reperfusion injury (IRI) is created in the mouse through unilateral or bilateral clamping of kidney arteries, which leads to tubule damage, inflammation, and fibrosis. Kidney dysfunction can occur either early (<5 days) or late (>7 days) in this model, with the early time points useful to test candidate agents for the treatment of acute kidney injury, and the later time points useful to model chronic fibrosis.
# (§2) Anti-miR-21 compounds were tested in the unilateral IRI model. Unilateral IRI was induced for a period of 30 minutes. Treatment groups were as follows: sham IRI procedure; IRI with PBS administered subcutaneously; IRI with anti-miR-21 compound 25070 administered intraperitoneally at a dose of 20 mg/kg; the 2′-fluoro/2′-MOE modified anti-miR-21 25919 administered intraperitoneally at a dose of 20 mg/kg; and a 2′-fluoro/2′ modified mismatch anti-miR-21 (having three mismatches to the sequence of miR-21) 25319 administered intraperitoneally at a dose of 20 mg/kg. PBS or anti-miR compound was administered on days 5, 6, and 7 following IRI, and animals were sacrificed 14 days after IRI. As anti-miR compound is administered 5 days following the injury to the kidney, or later, when fibrosis has already occurred to some extent, this treatment regimen is considered a therapeutic regimen, rather than a prophylactic regimen.
# (§3) Kidney tissue was collected for analysis of collagen 1A1 and collagen 3A1 expression (shown in Table O), and collagen area fraction (shown in Table P).
# (§4) A similar study was performed with the same treatment groups and additional days of treatment. In this study, treatments were administered intraperitoneally at days 5, 6, 7, 14, and 21 following the IRI procedure Animals were sacrificed on Day 27, and kidney tissue was collected for analysis of collagen 1A1 and collagen 3A1 expression, as well as collagen area fraction.
# In order to assess the flexibility of administration of the anti-miR-21 compound 25070, the activity of the compound in the 14 day study above, where anti-miR-21 was administered at […] following the IRI procedure, to a different 14 day study where anti-miR-21 was administered intraperitoneally at days 3, 5, and 7 following the IRI procedure.
# [4] = test system: ischemia reperfusion injury (IRI) model; assay: Unilateral IRI model: collagen area fraction of kidney tissue; type: in vivo, mouse
# Method: as §1, §2, §3, §4
# [5] = 20 mg/kg at days -5, -3, +3, kidney at day 10
# [6] = 20 mg/kg at days -3, -1, +5 (prophylactic), kidney at day 11, real-time PCR normalized to GAPDH then sham, 20 mg/kg
# [7] = 20 mg/kg intraperitoneally on days 5, 6, 7, sacrifice 14 days after IRI, 20 mg/kg
# [8] = 20 mg/kg intraperitoneally on days 5, 6, 7, sacrifice 14 days after IRI, group mean
# [9] = intraperitoneally on days 5, 6, 7, 14, 21, sacrifice Day 27
sequence,measurement,setting,value
"AEASATCSTGTCSTCAUSAATASAAE [Compound 25109, reference compound]",geometric mean of the urinary albumin to creatinine ratio,[1],140 μgAlb/mgCr
"AECSATCSAGTCSTGAUSAAGCSTAS (ACATCAGTCTGATAAGCTA; modified nucleosides coded in name, code key not given here) [Compound 25923, 25070 variant: 3'-terminal nucleoside is a cEt nucleoside rather than 2'-MOE nucleoside]",inhibition of miR-21 in the luciferase assay (in words),miR-21; Hela cells,demonstrated inhibition of miR-21 in a dose-dependent manner
same,fold change in luciferase value relative to the mock treatment,miR-21; concentration of anti-miR compound 0.2 (unit not given),1.06
same,fold change in luciferase value relative to the mock treatment,miR-21; concentration of anti-miR compound 0.6 (unit not given),1.01
same,fold change in luciferase value relative to the mock treatment,miR-21; concentration of anti-miR compound 1.9 (unit not given),1.10
same,fold change in luciferase value relative to the mock treatment,miR-21; concentration of anti-miR compound 5.6 (unit not given),5.18
same,fold change in luciferase value relative to the mock treatment,miR-21; concentration of anti-miR compound 16.7 (unit not given),11.34
same,fold change in luciferase value relative to the mock treatment,miR-21; concentration of anti-miR compound 50.0 (unit not given),10.81
same,"reduction of collagen 1A1 expression (in words, FIG. 2A)",[2]; [5],reduced collagen 1A1 and collagen 3A1 expression by a statistically significant amount
same,"reduction of collagen 3A1 expression (in words, FIG. 2B)",[2]; [5],reduced collagen 1A1 and collagen 3A1 expression by a statistically significant amount
same,reduction in urinary albumin to creatinine ratio (in words),"[1]; s.c. 20 mg/kg on days 2, 3, 4, 8",statistically significant reductions
same,geometric mean of the urinary albumin to creatinine ratio,[1],31 μgAlb/mgCr
"UECEAFAFCFAFUFCFAFGFUFCEUEGEAFUFAFAFGFCFUEAE (eU*eC*fA*fA*fC*fA*fU*fC*fA*fG*fU*eC*eU*eG*fA*fU*fA*fA*fG*fC*eU*eA) [Compound 25919, positive control, reference compound]",luciferase value normalized to beta-galactosidase activity,"miR-21; 4 nM oligonucleotide, Hela cells, mock transfection 50",84
same,luciferase value normalized to beta-galactosidase activity,"miR-21; .16 nM oligonucleotide, Hela cells, mock transfection 45",40
same,luciferase value normalized to beta-galactosidase activity,"miR-21; .8 nM oligonucleotide, Hela cells, mock transfection 33",53
same,"Collagen 1A1 (Normalized Expression), individual animal",[2]; [6],150.2 and 54.2 and 84.6 and 67.7 and 78.7 and 62.2 and 89.2 and 106.2
same,"Collagen 3A1 (Normalized Expression), individual animal",[2]; [6],67.1 and 33.9 and 87.6 and 47.3 and 67.7 and 46.7 and 47.0 and 57.8
same,"Collagen 1A1 (Normalized Expression), individual animal",[3]; [7],108.7 and 103.9 and 29.5 and 95.8 and 35.5 and 42.2 and 64.1 and 96.4
same,"Collagen 3A1 (Normalized Expression), individual animal",[3]; [7],87.5 and 72.3 and 14.3 and 104 .4 and 27.1 and 34.9 and 56.1 and 82.8
same,"Collagen 1A1 (Normalized Expression), Mean",[3]; [8],72.0
same,"Collagen 1A1 (Normalized Expression), individual animal",[3]; [9],75.5 and 50.4 and 49.2 and 43.2 and 41.7 and 53.6 and 44.8 and 28.0
same,"Collagen 3A1 (Normalized Expression), individual animal",[3]; [9],40.2 and 43.1 and 34.5 and 35.7 and 41.1 and 36.9 and 24.5 and 22.9
same,"Collagen Area Fraction (#), individual animal",[4]; [7],7.093 and 8.254 and 8.095 and 8.559 and 8.681 and 6.31 and 8.416 and 9.905
same,"Collagen Area Fraction (#), Mean",[4]; [8],8.2
same,"Collagen Area Fraction (#), individual animal",[4]; [9],11.882 and 9.755 and 9.506 and 12.654 and 20.319 and 11.551 and 12.224 and 14.468
